Assay: mn = molality of the nth substance listed, in mol/kg
Settings: 101 kPa, Liquid; for speed of sound: Frequency=2 MHz; for mass density: Pycnometric method; for electrical conductivity: Frequency=0.001 MHz, Alternating current cell with electrodes

CC(=O)[O-].CC(=O)[O-].[Mg+2] [magnesium acetate] + CO
Settings | electrical conductivity [S/m] | mass density [kg/m3] | speed of sound [m/s] | viscosity [mPa·s]
308.15 K, m1 = 0.014 | – | – | – | 0.4859
308.15 K, m1 = 0.018 | – | – | – | 0.4878
308.15 K, m1 = 0.0339 | – | – | – | 0.496
308.15 K, m1 = 0.0646 | – | – | – | 0.5027
308.15 K, m1 = 0.0855 | – | – | 1073.8 | –
308.15 K, m1 = 0.1012 | – | – | – | 0.5234
308.15 K, m1 = 0.1024 | – | – | 1077.1 | –
308.15 K, m1 = 0.13 | – | – | – | 0.532
308.15 K, m1 = 0.1402 | – | – | 1078.5 | 0.5368
308.15 K, m1 = 0.1455 | – | – | 1075.3 | –
308.15 K, m1 = 0.17 | – | – | – | 0.5518
308.15 K, m1 = 0.1837 | – | – | 1078.1 | –
308.15 K, m1 = 0.2003 | – | – | – | 0.5625
308.15 K, m1 = 0.2192 | – | – | 1081.5 | –
308.15 K, m1 = 0.2422 | – | – | 1081.2 | 0.5782
308.15 K, m1 = 0.2453 | – | – | – | 0.578
308.15 K, m1 = 0.2889 | – | – | 1082 | 0.5942
308.15 K, m1 = 0.3042 | – | – | 1083.6 | –
308.2 K, m1 = 0.0093 | – | 779.23 | – | –
308.7 K, m1 = 0.1112 | – | 786.87 | – | –
308.9 K, m1 = 0.053 | – | 781.63 | – | –
308.9 K, m1 = 0.1798 | – | 791.35 | – | –
308.9 K, m1 = 0.2003 | – | 791.74 | – | –
308.9 K, m1 = 0.2668 | – | 795.13 | – | –
308.95 K, m1 = 0.0855 | – | 783.63 | – | –
309.1 K, m1 = 0.0059 | – | 777.74 | – | –
309.1 K, m1 = 0.1455 | – | 788.87 | – | –
309.45 K, m1 = 0.2192 | – | 791.87 | – | –
309.5 K, m1 = 0.3042 | – | 796.38 | – | –
309.75 K, m1 = 0.0646 | – | 782.66 | – | –
309.95 K, m1 = 0.2422 | – | 793.32 | – | –
310.25 K, m1 = 0.014 | – | 778.28 | – | –
310.25 K, m1 = 0.0339 | – | 779.95 | – | –
310.5 K, m1 = 0.1402 | – | 787 | – | –
310.65 K, m1 = 0.0093 | – | 776.87 | – | –
311 K, m1 = 0.2668 | – | 793.11 | – | –
311.2 K, m1 = 0.1112 | – | 784.4 | – | –
311.2 K, m1 = 0.3042 | – | 794.7 | – | –
311.4 K, m1 = 0.053 | – | 779.24 | – | –
311.5 K, m1 = 0.0855 | – | 781.28 | – | –
311.5 K, m1 = 0.1798 | – | 788.93 | – | –
311.55 K, m1 = 0.0059 | – | 775.36 | – | –
311.6 K, m1 = 0.1455 | – | 786.44 | – | –
311.9 K, m1 = 0.2192 | – | 789.45 | – | –
312.1 K, m1 = 0.1402 | – | 785.37 | – | –
312.15 K, m1 = 0.0646 | – | 780.21 | – | –
312.3 K, m1 = 0.0093 | – | 775.23 | – | –
312.35 K, m1 = 0.2003 | – | 788.52 | – | –
312.45 K, m1 = 0.2422 | – | 790.83 | – | –
312.7 K, m1 = 0.0339 | – | 777.5 | – | –
312.75 K, m1 = 0.014 | – | 775.84 | – | –
312.9 K, m1 = 0.053 | – | 777.6 | – | –
313.05 K, m1 = 0.0855 | – | 779.61 | – | –
313.1 K, m1 = 0.2668 | – | 791.07 | – | –
313.15 K, m1 = 0.0059 | 0.0376 | – | 1053.9 | –
313.15 K, m1 = 0.0093 | 0.0598 | – | 1054.5 | –
313.15 K, m1 = 0.014 | – | – | – | 0.4545
313.15 K, m1 = 0.018 | 0.0685 | – | 1055.7 | 0.4559
313.15 K, m1 = 0.0339 | 0.089 | – | – | 0.4632
313.15 K, m1 = 0.053 | 0.1041 | – | 1059.6 | –
313.15 K, m1 = 0.0646 | 0.1137 | – | – | 0.4698
313.15 K, m1 = 0.0855 | 0.1243 | – | 1059 | –
313.15 K, m1 = 0.1012 | – | – | – | 0.4881
313.15 K, m1 = 0.1024 | 0.1348 | – | 1061 | –
313.15 K, m1 = 0.13 | – | – | – | 0.4956
313.15 K, m1 = 0.1402 | 0.1535 | – | 1062.7 | 0.5
313.15 K, m1 = 0.1455 | 0.1577 | – | 1059.1 | –
313.15 K, m1 = 0.17 | – | – | – | 0.5145
313.15 K, m1 = 0.1837 | 0.166 | – | 1061.4 | –
313.15 K, m1 = 0.2003 | – | – | – | 0.5239
313.15 K, m1 = 0.2192 | – | – | 1064.3 | –
313.15 K, m1 = 0.2422 | 0.1817 | – | 1064.9 | 0.5375
313.15 K, m1 = 0.2453 | – | – | – | 0.5373
313.15 K, m1 = 0.2889 | 0.1868 | – | 1066.1 | 0.5513
313.15 K, m1 = 0.3042 | – | – | 1067.2 | –
313.55 K, m1 = 0.3042 | – | 792.2 | – | –
313.65 K, m1 = 0.1112 | – | 782 | – | –
313.95 K, m1 = 0.1455 | – | 784.03 | – | –
313.95 K, m1 = 0.1798 | – | 786.45 | – | –
314.05 K, m1 = 0.0059 | – | 772.92 | – | –
314.55 K, m1 = 0.1402 | – | 782.97 | – | –
314.6 K, m1 = 0.0646 | – | 777.82 | – | –
314.7 K, m1 = 0.0093 | – | 772.8 | – | –
314.8 K, m1 = 0.2003 | – | 786.04 | – | –
314.8 K, m1 = 0.2422 | – | 788.41 | – | –
314.8 K, m1 = 0.2668 | – | 789.38 | – | –
315.1 K, m1 = 0.0339 | – | 775.12 | – | –
315.2 K, m1 = 0.014 | – | 773.47 | – | –
315.4 K, m1 = 0.053 | – | 775.16 | – | –
315.45 K, m1 = 0.0855 | – | 777.19 | – | –
316.05 K, m1 = 0.3042 | – | 789.78 | – | –
316.35 K, m1 = 0.0059 | – | 770.56 | – | –
316.35 K, m1 = 0.1798 | – | 784.05 | – | –
316.4 K, m1 = 0.1455 | – | 781.57 | – | –
316.95 K, m1 = 0.0855 | – | 775.61 | – | –
316.95 K, m1 = 0.2668 | – | 787.26 | – | –
317 K, m1 = 0.0093 | – | 770.44 | – | –
317.25 K, m1 = 0.2003 | – | 783.64 | – | –
318.7 K, m1 = 0.1455 | – | 779.18 | – | –
